Reference: patent US20080039515A1, “Arylpyrazoles And Methods Of Using Same For Control Of Insect Pests That Bore Into Trees” (The Texas A&M University System, priority 2004, published 2008)
Read-outs that look alike come from different tables or passages of the source.

Legend:
cerambycid larvae = format: in vivo, cerambycids; conditions: for reduction of cerambycid larval feeding damage: May
Method: (§1) Study Sites: Two 20-year-old, recently thinned loblolly pine plantations were selected in Texas. Trees in one plantation were injected for use in a bolt study (Trial 1). Trees in ½ acre section of the second plantation were injected as part of a single-tree protection study (Trial 2). A staging area also was set up in the second plantation where bolts from the first plantation were exposed to bark beetles and wood borers.
After 1 (May 24), 3 (July 19) and 5 (September) months post-injection, 5 trees of each treatment were felled and two 1.5 m long bolts were removed from the 3 m and 8 m heights of the bole. Because southern pine beetle (SPB) populations were extremely low in east Texas during the study year, Ips engravers were used as alternative bark beetles for this study. The bolts were transported to a 20-year-old loblolly plantation that was recently thinned and contained fresh slash material. Each bolt was placed about 1 m apart on discarded, dry pine bolts to maximize surface area available for colonization as well as to discourage predation by ground and litter-inhabiting organisms. To facilitate timely bark beetle colonization, packets of bark beetle pheromones (racemic ipsdienol +lanerione combination, ipsenol or cis-verbenol; Phero Tech, Inc., Delta, BC, Canada) were attached separately to three 1 m stakes evenly spaced in the study area. Racemic ipsdienol and cis-verbenol were used with the second series of bolts deployed in July. The packets were removed after 2 weeks when signs of attacks (boring dust) were observed on most test bolts, signaling that naturally-produced pheromones were present.
Treatment Evaluation: Trial 1. The first and second series of bolts were retrieved 2.5 and 3 weeks, respectively, after deployment, after observing many cerambycid attacks on most of the bolts. In the laboratory, two 10×50 cm strips (total=1000 cm^2) of bark were removed from each bolt. Several measurements were made relating to construction of nuptial chambers and egg galleries and development of brood: • 1. Number of unsuccessful attacks—penetration to phloem, but no egg galleries. • 2. Number of successful attacks—construction of nuptial chamber and at least one egg gallery extending from it. • 3. Number and lengths of egg galleries with brood galleries radiating from them. • 4. Number and lengths of egg galleries without brood galleries. • 5. Cerambycid activity, estimated by overlaying a 100 cm^2 grid over a portion of each bark strip and counting the number of squares overlapping area where cerambycids had fed.
Treatment efficacy was determined by comparing Ips beetle attacks and egg gallery length and cerambycid feeding on treated and untreated bolts. The data were transformed by log10(x+1) to satisfy criteria for normality and homoscedasticity (Zar 1984) and analyzed by GLM and the Fishers Protected LSD test using the Statview statistical program.

Ips engraver beetles = experiment: Trial 2 single-tree protection study: Ips attack, tree mortality and gallery construction on standing loblolly pine; format: in vivo; set-up: Length of Egg Galleries Total: unit not given here; conditions: for trees with early signs of fading crowns (number of 6 trees): 24 days after initial pheromone deployment; for Length of Egg Galleries Total / Length of Egg Galleries With Brood / Length of Egg Galleries With Brood % of Total / Length of Egg Galleries Without Brood / Length of Egg Galleries Without Brood % of Total / Number of Egg Galleries Total / Number of Egg Galleries With Brood % of Total / Number of Egg Galleries With Brood No. / Number of Egg Galleries Without Brood % of Total / Number of Egg Galleries Without Brood No. / Nuptial Chambers With Egg Galleries % of Total / Nuptial Chambers With Egg Galleries No. / Nuptial Chambers Without Egg Galleries % of Total / Nuptial Chambers Without Egg Galleries No. / Total Nuptial Chambers: logs cut after tree mortality or end of trial; for Mean # of Ips caught/trap / Number of Attacks/0.3 m bole section at 3 m after 24 days: Ips: standing loblolly pine; for Number of Attacks/0.3 m bole section at 3 m after 24 days: Ips: 24 days after pheromone deployment
Method: as §1
Population Monitoring: A clear panel of acetate (10 cm wide by 25 cm long) was attached to the center of each bolt after deployment of bolts or 2 m high on standing trees after deployment of pheromone baits to monitor arrival of bark beetles. The top surface of each panel was coated entirely with Stikem Special® trapping compound (Michel and Pelton, Emeryville, Calif.). The traps were left in place for two weeks.
Trial 2: Loblolly pine, 15-20 cm (=6-9 inch) DBH, also were selected in March of the study year in a recently thinned 20-year-old pine stand in east Texas. Each treatment (the same as those used in Trial 1) was injected into four cardinal points about 0.3 m above the ground on each of 6 trees in April (16th-23rd) using the Arborjet Tree IV™ system.
After 5 weeks post-injection (May 28), frills were cut with a hatchet into the sapwood between the injection points near the base of the tree. A cellulose. sponge was inserted into each cut and loaded with I0 ml of a 4:1 mix of sodium N-methyldithiocarbamate (MS) (Woodfume®; Osmose, Inc., Buffalo, N.Y.) plus dimethyl sulfoxide (DMSO) (Aldrich Chemical) (Roton 1987, Strom et al. 2004). […] The intent was to stress the tree and make it susceptible to attack by bark beetles without killing it. Pheromone packets containing racemic ipsdienol+lanerione, ipsenol or cis-verbenol were attached (June 7) atop 3 m stakes evenly spaced in between and around the study trees to encourage attack by the three Ips engraver species. […] The baits were changed every 4 weeks.
Trial 2. […] All visible Ips attacks and cerambycid egg niches were counted within the marked area. The number of trees with fading crowns also was recorded. Thereafter, the trees were evaluated weekly for crown fading. When mortality did occur, the trees were felled and two bolts taken and evaluated for attack success and gallery length as described in Trial 1. […] Treatment efficacy was determined by comparing tree survival, beetle attacks and egg gallery length on treated and untreated bolts. As before, data were transformed and analyzed by GLM and the Fisher's Protected LSD test using the Statview statistical program.

[1] = After 24 days from pheromone bait deployment

SMILES: N#Cc1nn(-c2c(Cl)cc(C(F)(F)F)cc2Cl)c(N)c1[S+]([O-])C(F)(F)F (centres unmarked) [Fip, 5-amino-3-cyano-1-(2,6-dichloro-4-trifluoromethylphenyl)-4-trifluoromethylsulfinylpyrazole]
- phloem area fed upon by cerambycid larvae (cerambycid larvae; July, bolts from 3 m): 2%
- reduction of cerambycid larval feeding damage (cerambycid larvae; bolts from 3 m): 82%
- reduction of cerambycid larval feeding damage (cerambycid larvae; bolts from 8 m): 55%
- trees with early signs of fading crowns (number of 6 trees) (Ips engraver beetles): None
- Pct of Trees w/Fading Crowns (Ips engraver beetles; [1]): 0.0 Pct
- Pct of Trees w/Fading Crowns (Ips engraver beetles; After 32 days): 0.0 Pct
- Pct of Trees w/Fading Crowns (Ips engraver beetles; After 39 days): 0.0 Pct
- Pct of Trees w/Fading Crowns (Ips engraver beetles; After 46 days): 0.0 Pct
- Pct of Trees w/Fading Crowns (Ips engraver beetles; After 52 days): 0.0 Pct
- Pct of Trees w/Fading Crowns (Ips engraver beetles; After 59 days): 0.0 Pct
- Pct of Trees w/Fading Crowns (Ips engraver beetles; After 66 days): 0.0 Pct
- Length of Egg Galleries Total (Ips engraver beetles; bolt height 3 m): 6.0
- Length of Egg Galleries With Brood (Ips engraver beetles; bolt height 3 m): 2.5 cm
- Length of Egg Galleries With Brood % of Total (Ips engraver beetles; bolt height 3 m): 41.7%
- Length of Egg Galleries Without Brood (Ips engraver beetles; bolt height 3 m): 3.5 cm
- Length of Egg Galleries Without Brood % of Total (Ips engraver beetles; bolt height 3 m): 58.3%
- Number of Egg Galleries Total (Ips engraver beetles; bolt height 3 m): 1.2
- Number of Egg Galleries With Brood % of Total (Ips engraver beetles; bolt height 3 m): 14.3%
- Number of Egg Galleries With Brood No. (Ips engraver beetles; bolt height 3 m): 0.2
- Number of Egg Galleries Without Brood % of Total (Ips engraver beetles; bolt height 3 m): 85.7%
- Number of Egg Galleries Without Brood No. (Ips engraver beetles; bolt height 3 m): 1.0
- Nuptial Chambers With Egg Galleries % of Total (Ips engraver beetles; bolt height 3 m): 18.9%
- Nuptial Chambers With Egg Galleries No. (Ips engraver beetles; bolt height 3 m): 1.2
- Nuptial Chambers Without Egg Galleries % of Total (Ips engraver beetles; bolt height 3 m): 81.1%
- Nuptial Chambers Without Egg Galleries No. (Ips engraver beetles; bolt height 3 m): 5.0
- Total Nuptial Chambers (Ips engraver beetles; bolt height 3 m): 6.2
- Length of Egg Galleries Total (Ips engraver beetles; bolt height 8 m): 22.7
- Length of Egg Galleries With Brood (Ips engraver beetles; bolt height 8 m): 2.5 cm
- Length of Egg Galleries With Brood % of Total (Ips engraver beetles; bolt height 8 m): 11.0%
- Length of Egg Galleries Without Brood (Ips engraver beetles; bolt height 8 m): 20.2 cm
- Length of Egg Galleries Without Brood % of Total (Ips engraver beetles; bolt height 8 m): 89.0%
- Number of Egg Galleries Total (Ips engraver beetles; bolt height 8 m): 7.7
- Number of Egg Galleries With Brood % of Total (Ips engraver beetles; bolt height 8 m): 6.5%
- Number of Egg Galleries With Brood No. (Ips engraver beetles; bolt height 8 m): 0.5
- Number of Egg Galleries Without Brood % of Total (Ips engraver beetles; bolt height 8 m): 93.5%
- Number of Egg Galleries Without Brood No. (Ips engraver beetles; bolt height 8 m): 7.2
- Nuptial Chambers With Egg Galleries % of Total (Ips engraver beetles; bolt height 8 m): 66.7%
- Nuptial Chambers With Egg Galleries No. (Ips engraver beetles; bolt height 8 m): 3.0
- Nuptial Chambers Without Egg Galleries % of Total (Ips engraver beetles; bolt height 8 m): 33.3%
- Nuptial Chambers Without Egg Galleries No. (Ips engraver beetles; bolt height 8 m): 1.5
- Total Nuptial Chambers (Ips engraver beetles; bolt height 8 m): 4.5
- Mean # of Ips caught/trap (Ips engraver beetles): 5.2
- Number of Attacks/0.3 m bole section at 3 m after 24 days: Ips (Ips engraver beetles): 1.3
- tree survival (Ips engraver beetles; standing trees, end of trial (66 days)): survived

SMILES: O=[N+]([O-])NC1=NCCN1Cc1ccc(Cl)nc1 [Imid]
- reduction of cerambycid larval feeding damage (cerambycid larvae; bolts from 3 m): 61%
- reduction of cerambycid larval feeding damage (cerambycid larvae; bolts from 8 m): 98%
- trees with early signs of fading crowns (number of 6 trees) (Ips engraver beetles): 3 of 6
- Pct of Trees w/Fading Crowns (Ips engraver beetles; [1]): 50.0 Pct
- Pct of Trees w/Fading Crowns (Ips engraver beetles; After 32 days): 83.3 Pct
- Pct of Trees w/Fading Crowns (Ips engraver beetles; After 39 days): 83.3 Pct
- Pct of Trees w/Fading Crowns (Ips engraver beetles; After 46 days): 83.3 Pct
- Pct of Trees w/Fading Crowns (Ips engraver beetles; After 52 days): 100.0 Pct
- Pct of Trees w/Fading Crowns (Ips engraver beetles; After 59 days): 100.0 Pct
- Pct of Trees w/Fading Crowns (Ips engraver beetles; After 66 days): 100.0 Pct
- Length of Egg Galleries Total (Ips engraver beetles; bolt height 3 m): 301.5
- Length of Egg Galleries With Brood (Ips engraver beetles; bolt height 3 m): 121.7 cm
- Length of Egg Galleries With Brood % of Total (Ips engraver beetles; bolt height 3 m): 40.4%
- Length of Egg Galleries Without Brood (Ips engraver beetles; bolt height 3 m): 179.8 cm
- Length of Egg Galleries Without Brood % of Total (Ips engraver beetles; bolt height 3 m): 59.6%
- Number of Egg Galleries Total (Ips engraver beetles; bolt height 3 m): 38.2
- Number of Egg Galleries With Brood % of Total (Ips engraver beetles; bolt height 3 m): 28.8%
- Number of Egg Galleries With Brood No. (Ips engraver beetles; bolt height 3 m): 11.0
- Number of Egg Galleries Without Brood % of Total (Ips engraver beetles; bolt height 3 m): 71.2%
- Number of Egg Galleries Without Brood No. (Ips engraver beetles; bolt height 3 m): 27.2
- Nuptial Chambers With Egg Galleries % of Total (Ips engraver beetles; bolt height 3 m): 98.0%
- Nuptial Chambers With Egg Galleries No. (Ips engraver beetles; bolt height 3 m): 8.0
- Nuptial Chambers Without Egg Galleries % of Total (Ips engraver beetles; bolt height 3 m): 2.0%
- Nuptial Chambers Without Egg Galleries No. (Ips engraver beetles; bolt height 3 m): 0.2
- Total Nuptial Chambers (Ips engraver beetles; bolt height 3 m): 8.2
- Length of Egg Galleries Total (Ips engraver beetles; bolt height 8 m): 217.5
- Length of Egg Galleries With Brood (Ips engraver beetles; bolt height 8 m): 115.5 cm
- Length of Egg Galleries With Brood % of Total (Ips engraver beetles; bolt height 8 m): 53.1%
- Length of Egg Galleries Without Brood (Ips engraver beetles; bolt height 8 m): 102.0 cm
- Length of Egg Galleries Without Brood % of Total (Ips engraver beetles; bolt height 8 m): 46.9%
- Number of Egg Galleries Total (Ips engraver beetles; bolt height 8 m): 33.2
- Number of Egg Galleries With Brood % of Total (Ips engraver beetles; bolt height 8 m): 42.7%
- Number of Egg Galleries Without Brood % of Total (Ips engraver beetles; bolt height 8 m): 57.3%
- Number of Egg Galleries Without Brood No. (Ips engraver beetles; bolt height 8 m): 19.0
- Nuptial Chambers With Egg Galleries % of Total (Ips engraver beetles; bolt height 8 m): 78.7%
- Nuptial Chambers With Egg Galleries No. (Ips engraver beetles; bolt height 8 m): 9.8
- Nuptial Chambers Without Egg Galleries % of Total (Ips engraver beetles; bolt height 8 m): 21.3%
- Nuptial Chambers Without Egg Galleries No. (Ips engraver beetles; bolt height 8 m): 2.7
- Total Nuptial Chambers (Ips engraver beetles; bolt height 8 m): 12.5
- Mean # of Ips caught/trap (Ips engraver beetles): 8.5
- Number of Attacks/0.3 m bole section at 3 m after 24 days: Ips (Ips engraver beetles): 12.7
- trees died due to bark beetle attack (Ips engraver beetles; standing trees, after 66 days): 100%
